Test results published in patent US11806428B2 (HARM REDUCTION THERAPEUTICS, INC., priority 2011, dated 2023).

Assays:
[1] = clinical; details: both, human, plasma
[2] = Prediction of naloxone plasma concentrations with Excel: non-compartmental analysis on mean profiles scaled to the proposed doses; set-up: species or system human
[3] = Prediction of naloxone plasma concentrations with WinNonlin Modeling: compartmental pharmacokinetic model and simulation; set-up: species or system human; details: 36 h
Protocol: The corresponding C max and AUCt-values are as follows (for the total time period of 36 h): […]

[4] = Safety assessment (adverse events, clinical laboratory results, vital signs, ECGs) in the 4-way crossover study; type: in vivo, human
[5] = intranasal administration
[6] = oral administration; cited from earlier work
[7] = predicted for 0.4 mg IV, based on 1 mg IV data excluding the outlying subject
[8] = predicted for 0.4 mg IV, based on 1 mg IV data, all subjects
[9] = predicted for 1.2 mg IN, based on 8 mg IN data
[10] = predicted for 1.2 mg IN, based on 16 mg IN data
[11] = predicted for 1.6 mg IN, based on 8 mg IN data
[12] = predicted for 1.6 mg IN, based on 16 mg IN data
[13] = another subject, Day 44, normal before study drug, rated possibly related

In the case of `C=CCN1CC[C@]23c4c5ccc(O)c4O[C@H]2C(=O)CC[C@@]3(O)[C@H]1C5` [naloxone], the bioavailability ([1]; other: intranasal, 8 mg) was 32%, the bioavailability ([1]; other: intranasal, 16 mg) was 27% and the bioavailability ([1]; other: sublingual, 16 mg) was ~2%. It also gave an AUCt [2, 7] of 3.8122 ng·h/mL, a Cmax [2, 7] of 2.8817 ng/mL and an AUCt [2, 8] of 4.5789 ng·h/mL. For the same molecule, the Cmax [2, 8] was 4.7352 ng/mL, the AUCt [2, 9] was 3.1596 ng·h/mL and the Cmax [2, 9] was 1.5352 ng/mL. It also gave an AUCt [2, 10] of 2.585 ng·h/mL, a Cmax [2, 10] of 1.0525 ng/mL and an AUCt [2, 11] of 4.2128 ng·h/mL. The Cmax [2, 11] was 2.0469 ng/mL, the AUCt [2, 12] was 3.4467 ng·h/mL and the Cmax [2, 12] was 1.4034 ng/mL. It also gave an AUCt [3, 9] of 2.8762 ng·h/mL, a Cmax [3, 9] of 1.5995 ng/mL and an AUCt [3, 10] of 2.1631 ng·h/mL. For the same molecule, the Cmax [3, 10] was 0.8935 ng/mL, the AUCt [3, 11] was 3.835 ng·h/mL and the Cmax [3, 11] was 2.1326 ng/mL. The AUCt [3, 12] was 2.8841 ng·h/mL, the Cmax [3, 12] was 1.1913 ng/mL and the “treatment-emergent adverse events (TEAEs)” value ([4]; 1 mg intravenous) was 4 TEAEs. For the same molecule, the “treatment-emergent adverse events (TEAEs)” value ([4]; 8 mg intranasal) was 3 TEAEs, the “treatment-emergent adverse events (TEAEs)” value ([4]; 16 mg intranasal) was 5 TEAEs and the “treatment-emergent adverse events (TEAEs)” value ([4]; 16 mg sublingual) was 1 TEAE. The “changes in ECG” value ([4]; all treatments) was “No clinically relevant changes in ECG occurred”, the “deaths, serious adverse events, other significant adverse events” value ([4]; all treatments) was “no deaths, serious adverse events, or other significant adverse events” and the “markedly abnormal change in blood pressure” value ([4]; all treatments) was “one subject”. For the same molecule, the “markedly abnormal changes in pulse rate” value ([4]; all treatments) was “Three subjects”, the “overall trend in abnormal vital sign changes” value ([4]; all treatments) was “No overall trend in abnormal vital sign changes was observed” and the “markedly abnormal high SGPT value” [4, 13] was 371 U/l. The “markedly abnormal high total bilirubin value” [4, 13] was 39.33 µmol/L, the “markedly abnormal low potassium value” [4, 13] was 3.3 mmol/L and the “TEAEs of vasovagal attack” value ([4]; intranasal application (one after 8 mg, one after 16 mg)) was 2 subjects. The “TEAEs of vasovagal attack” value ([4]; intravenous bolus 1 mg) was 1 subject, the “markedly abnormal high triglyceride value” ([4]; one subject, Day 44, 4.189 mmol/l on Day -9 before study drug) was 8.355 mmol/L and the “peak plasma concentrations attained as early as (time after dosing)” value ([5]; earliest) was 6 min. The “time to peak plasma concentrations, median” value ([5]; median) was 18 min and the oral bioavailability [6] was < 3%.
